A word on the IC50: it is the concentration that inhibits the measured activity by half. Read a high IC50 as lower potency.

Experimental findings from patent publication US9463192B2, “Trk-inhibiting compound” (ONO PHARMACEUTICAL CO., LTD., priority 2013, dated 2016) are described below.

In one experiment the target is human TrkA (Homo sapiens (Human), UniProt P04629). Nature of the experiment: Measurement of TrkA kinase-inhibiting activity using human TrkA-expressing cells. The class given is cell-based. As to conditions: CHO-K1 cells expressing human TrkA and NFAT-bla; NGF 50 ng/ml; TR-FRET reporter. As to the method: TrkA kinase-inhibiting activity in cell systems was measured using CHO-K1 cells exressing human TrkA and NFAT-bla (CellSenser™ TrkA-NFAT-bla CHO-K1 cells, Invitrogen).
Chain of human TrkA (P04629 33-796): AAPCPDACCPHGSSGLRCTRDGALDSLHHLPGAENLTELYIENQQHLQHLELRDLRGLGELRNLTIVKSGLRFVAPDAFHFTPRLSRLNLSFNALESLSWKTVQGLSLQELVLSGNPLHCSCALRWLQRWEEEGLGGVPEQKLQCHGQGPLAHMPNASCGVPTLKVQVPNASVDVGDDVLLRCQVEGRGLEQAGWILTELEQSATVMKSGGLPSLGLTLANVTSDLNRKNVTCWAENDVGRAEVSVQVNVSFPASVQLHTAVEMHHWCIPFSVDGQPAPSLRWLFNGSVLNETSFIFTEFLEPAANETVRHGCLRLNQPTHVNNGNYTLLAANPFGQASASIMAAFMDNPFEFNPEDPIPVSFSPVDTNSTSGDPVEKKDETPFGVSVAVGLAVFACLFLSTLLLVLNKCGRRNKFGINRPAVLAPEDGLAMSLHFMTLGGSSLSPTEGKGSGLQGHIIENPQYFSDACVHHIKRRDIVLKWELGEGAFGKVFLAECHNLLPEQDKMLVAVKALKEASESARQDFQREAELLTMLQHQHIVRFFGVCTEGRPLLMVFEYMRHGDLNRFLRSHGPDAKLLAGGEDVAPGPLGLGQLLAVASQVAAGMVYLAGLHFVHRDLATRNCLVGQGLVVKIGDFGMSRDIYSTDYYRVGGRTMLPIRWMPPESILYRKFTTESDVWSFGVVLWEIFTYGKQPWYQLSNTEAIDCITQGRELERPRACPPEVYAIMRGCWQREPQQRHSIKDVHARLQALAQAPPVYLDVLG
On the day before the assay, CellSenser™ TrkA-NFAT-bla CHO-K1 cells were suspended in an assay medium (Opti-MEM1 Reduced Serum Medium (Invitrogen) containing 0.5% dialysed fetal bovine serum (Invitrogen), 0.1 mM nonessential amino acids (Invitrogen), 1 mM sodium pyruvate (Invitrogen) and antibiotics (100 U/mL penicillin and 100 µg/mL streptomycin (Invitrogen))) and plated at a density of 2.4×10^4 cells/40 μL/well in a 96-well clear bottom plate (Corning, Catalogue No.: 3882). In some wells were added only the assay medium at 40 μL/well (Cell-free). On the day of the assay, 10 mM of the present compound (DMSO solution) was distributed in a 96-well plate (Costar, Catalogue No.: 3363) and serially diluted with DMSO with the geometrical ratio of 3. The serial dilutions were diluted with the assay medium to 100-fold to prepare a solution of the present compound with a 10-fold concentration (DMSO concentration: 1%). To the plate where cells were plated was added the present compound at 5 µL/well and the plate was incubated in a CO2 incubator with 5% CO2, 95% Air at 37° C. for 30 minutes. For a control and a blank, the assay medium containing 1% DMSO was added at 5 µL/well in place of the solution of the present compound. Subsequently the assay medium containing NGF (Mouse 2.5s, Natural, Invitrogen) was added to the plate at 5 µL/well (final concentration of NGF: 50 ng/ml) and the plate was incubated in a CO2 incubator with 5% CO2, 95% Air at 37° C. for 5 hours. For the blank group, the assay medium was added in place of NGF at 5 µL/well. A reporter assay detection reagent ([…]) was added to the plate which was then incubated in the dark at room temperature for 120 minutes. The reporter assay detection reagent was prepared from LiveBLAzer™-FRET B/G Loading Kit (Invitrogen). On the Analyst GT (Molecular Devices Japan, K.K.) the wells were irradiated with excitation light at 405 nm and the fluorescence intensities at 460 nm and 530 nm were measured. The time resolved fluorescence resonance energy transfer (TR-FRET) ratio of each well was calculated according to the following Equation 1: TR-FRET ratio=(A460x−A460F)/(A530x−A530F) [Eq. 1]
A460x: the fluorescence intensity at 460 nm of the present compound, control or blank;
A460F: the fluorescence intensity at 460 nm of the Cell-free;
A530x: the fluorescence intensity at 530 nm of the present compound, control or blank; and
A530x: the fluorescence intensity at 530 nm of the Cell-free.
The TR-FRET inhibition rate (%) of the present compound was calculated according to the following Equation 2: Inhibition rate (%)={1−(AX−AB)/(AC−AB)}×100 [Eq. 2]
wherein AX: the TR-FRET ratio when the present compound is added;
AB: the TR-FRET of the blank; and
AC: the TR-FRET of the control.
The IC50 value by the present compound was calculated from the inhibition curve based on the inhibition rate of the present compound at respective concentrations.
(In general: In TR-FRET formats the signal depends on donor and acceptor labels being close together.)

Experiment [1] has as its system NGF-induced vascular hyper permeability. The experiment can be described thus: Inhibition of rat NGF-induced vascular hyper permeability. It counts as in vivo. To be noted: po, 1 mg/kg orally, 14 h after administration, read-out: Inhibition rate of vascular hyper permeability (%) (time after administration (h)). The method, then: TrkA-inhibiting activity of the present compound was evaluted in vivo. The present compound dissolved in a medium was orally administered (adminstered volume: 5 mL/kg) to male CD(SD)IGS rats (7- to 9-week old, Charles River laboratories Japan, Inc.) shaved on the back. A medium was orally administered (adminstered volume: 5 mL/kg) to the control and normal groups. After 6, 12 or 14 hours of administration, 3 μg/mL of a NGF (Mouse 2.5s, Natural, Invitrogen) solution prepared in 0.1% BSA (Sigma-Aldrich)-containing saline was intracutaneously administered (dose; 50 μL/site) at 3 sites on the back of animals under halothane anesthesia. For the normal group, 0.1% BSA-containing saline was intracutaneously administered (dose; […]) at 3 sites on the back. Immediately after intracutaneous administration, 1% Evans Blue (Tokyo Chemical Industriy Co., Ltd.) was administered intravenously from tail (adminstered volume: 3 mL/kg). After 10 minutes of administration, the animals were sacrificed by bleeding due to incision of the abdominal aorta. The sites of intracutaneous administration on the back (3 sites) were excised and the skin samples were respectively transferred to the wells in a 48-well plate (Asahi Glass Co., Ltd.). Formamide (0.8 mL/well) was added to the plate and the plate was sealed and incubated overnight at 60° C. The formamide extraction solution (200 μL) was transferred to a 96-well plate and the absorbance (wavelength: 620 nm) of Evans Blue extracted in formamide was measured on an absorbance microplate reader (SpectraMAX 190, Molecular Devices Japan, K.K.). Standard samples of Evans Blue dissolved in formamide (0, 0.78, 1.56, 3.13, 6.25, 12.5, 25 and 50 µg/mL) were measured at the same time for the absorance (wavelength: 620 nm) to generate a calibration curve. Based on the calibration curve and the absorbances of samples, the concentrations of Evans Blue in the sample was calculated. The concentrations of Evans Blue for three skin samples collected from one aminal were averaged to obtain the vale for the animal. The rate of inhibition for rat NGF-induced vascular hyper permeability of the present compound was calculated according to the following Equation: Inhibition rate (%)={1−(AX−AN)/(AC−AN)}×100 [Eq. 3]
wherein AX: the concentration of Evans Blue of the test compound (an average value of 3 samples from one animal);
AN: the concentration of Evans Blue of the normal group (an average value of 3 samples from one animal);
AC: the concentration of Evans Blue of the control group (an average value of 3 samples from one animal).

On to `Nc1ncc(Cl)cc1-c1ccc(Oc2ncc(NC(=O)Nc3ccc(C(F)(F)F)cc3Cl)cn2)cc1` [Example 15-6, 1-(2-(4-(2-amino-5-chloropyridin-3-yl)phenoxy)pyrimidin-5-yl)-3-(2-chloro-4-(trifluoromethyl)phenyl)urea], for which the IC50 against human TrkA was found to be 0.002 µM. In addition, the inhibition in vivo at 1 mg/kg in experiment [1] amounted to 95%.

`Nc1ncc(C(F)(F)F)cc1-c1ccc(Oc2ncc(NC(=O)Nc3cc(C(F)(F)F)ccc3-n3ccc(C(F)(F)F)n3)cn2)cc1` [Example 15-52, 1-(2-{4-[2-amino-5-(trifluoromethyl)-3-pyridinyl]phenoxy}-5-pyrimidinyl)-3-{5-(trifluoromethyl)-2-[3-(trifluoromethyl)-1H-pyrazol-1-yl]phenyl}urea] displayed an IC50 against human TrkA of 0.004 µM. Also, in experiment [1], the inhibition in vivo at 1 mg/kg is 96%.

On human TrkA, `Nc1ncc(Cl)cc1-c1ccc(Oc2ncc(NC(=O)Nc3cc(C(F)(F)F)ccc3-c3ccccc3)cn2)cc1` [Example 15-55, 1-{2-[4-(2-amino-5-chloro-3-pyridinyl)phenoxy]-5-pyrimidinyl}-3-[4-(trifluoromethyl)-2-biphenylyl]urea] gave an IC50 of 0.004 µM. The inhibition in vivo at 1 mg/kg in experiment [1] worked out at 94%.

As to `Nc1ncc(F)cc1-c1ccc(Oc2ncc(NC(=O)Nc3cc(C(F)(F)F)ccc3-c3ccccc3)cn2)cc1` [Example 15-58, 1-{2-[4-(2-amino-5-fluoro-3-pyridinyl)phenoxy]-5-pyrimidinyl}-3-[4-(trifluoromethyl)-2-biphenylyl]urea], half-maximal inhibition against human TrkA (IC50) was put at 0.002 µM. The inhibition in vivo at 1 mg/kg in experiment [1] amounted to 100%.

Regarding `Nc1ncc(Cl)cc1-c1ccc(Oc2ncc(NC(=O)Nc3cc(C(F)(F)F)ccc3-n3cc(Cl)cn3)cn2)cc1` [Example 15-63, 1-{2-[4-(2-amino-5-chloro-3-pyridinyl)phenoxy]-5-pyrimidinyl}-3-[2-(4-chloro-1H-pyrazol-1-yl)-5-(trifluoromethyl)phenyl]urea], 0.002 µM corresponded to half-maximal inhibition against human TrkA (IC50). The inhibition in vivo at 1 mg/kg in experiment [1] came to 99%.

On human TrkA, `Nc1ncc(Cl)cc1-c1ccc(Oc2ncc(NC(=O)Nc3cc(Cl)ccc3-n3ccc(C(F)(F)F)n3)cn2)cc1` [Example 15-71, 1-{2-[4-(2-amino-5-chloro-3-pyridinyl)phenoxy]-5-pyrimidinyl}-3-{5-chloro-2-[3-(trifluoromethyl)-1H-pyrazol-1-yl]phenyl}urea] returned an IC50 of 0.002 µM. Besides, the inhibition in vivo at 1 mg/kg in experiment [1] came to 100%.

The compound `Nc1ncc(Cl)cc1-c1ccc(Oc2ncc(NC(=O)Nc3ccc(C(F)(F)F)cc3C(F)(F)F)cn2)cc1` [Example 15-77, 1-{2-[4-(2-amino-5-chloro-3-pyridinyl)phenoxy]-5-pyrimidinyl}-3-[2,4-bis(trifluoromethyl)phenyl]urea] displayed an IC50 against human TrkA of 0.002 µM. In addition, in experiment [1], the inhibition in vivo at 1 mg/kg turned out to be 100%.

As for `Nc1ncc(C(F)(F)F)cc1-c1ccc(Oc2ncc(NC(=O)Nc3cc(C(F)(F)F)ccc3-n3cc(Cl)cn3)cn2)cc1` [Example 15-87, 1-(2-{4-[2-amino-5-(trifluoromethyl)-3-pyridinyl]phenoxy}-5-pyrimidinyl)-3-[2-(4-chloro-1H-pyrazol-1-yl)-5-(trifluoromethyl)phenyl]urea], at human TrkA, 0.001 µM corresponded to half-maximal inhibition (IC50). Further, the inhibition in vivo at 1 mg/kg in experiment [1] was 86%.

With `CS(=O)(=O)c1ccc(C(F)(F)F)cc1NC(=O)Nc1cnc(Oc2ccc(-c3cc(F)cnc3N)cc2)nc1` [Example 15-96, 1-{2-[4-(2-amino-5-fluoro-3-pyridinyl)phenoxy]-5-pyrimidinyl}-3-[2-(methylsulfonyl)-5-(trifluoromethyl)phenyl]urea], it took 0.0004 µM to reach half-maximal inhibition against human TrkA (IC50). The inhibition in vivo at 1 mg/kg in experiment [1] came to 90%.

For `CS(=O)(=O)c1ccc(C(F)(F)F)cc1NC(=O)Nc1cnc(Oc2ccc(-c3cc(C(F)(F)F)cnc3N)cc2)nc1` [Example 15-98, 1-(2-{4-[2-amino-5-(trifluoromethyl)-3-pyridinyl]phenoxy}-5-pyrimidinyl)-3-[2-(methylsulfonyl)-5-(trifluoromethyl)phenyl]urea], the midpoint of inhibition on human TrkA, the IC50, lay at 0.0008 µM. For the same compound, the inhibition in vivo at 1 mg/kg in experiment [1] is 80%.

On to `CS(=O)(=O)c1ccc(C(F)(F)F)cc1NC(=O)Nc1cnc(Oc2ccc(-c3cc(Cl)cnc3N)cc2)nc1` [Example 15-104, 1-{2-[4-(2-amino-5-chloro-3-pyridinyl)phenoxy]-5-pyrimidinyl}-3-[2-(methylsulfonyl)-5-(trifluoromethyl)phenyl]urea], for which, on human TrkA, it took 0.0005 µM to reach half-maximal inhibition (IC50). In addition, the inhibition in vivo at 1 mg/kg in experiment [1] is 100%.

Regarding `CN(C)S(=O)(=O)c1ccc(C(F)(F)F)cc1NC(=O)Nc1cnc(Oc2ccc(-c3cc(C(F)(F)F)cnc3N)cc2)nc1` [Example 15-105, 2-{[(2-{4-[2-amino-5-(trifluoromethyl)-3-pyridinyl]phenoxy}-5-pyrimidinyl)carbamoyl]amino}-N,N-dimethyl-4-(trifluoromethyl)benzenesulfonamide], inhibition against human TrkA was half-maximal at 0.004 µM (IC50). For the same compound, the inhibition in vivo at 1 mg/kg in experiment [1] worked out at 100%.

With `O=C(Nc1cnc(Oc2ccc(-c3cnn4ccc(N5CCC5)nc34)cc2)nc1)Nc1cc(C(F)(F)F)ccc1-c1cccnc1` [Example 21-1, 1-(2-(4-(5-(azetidin-1-yl)pyrazolo[1,5-a]pyrimidin-3-yl)phenoxy)pyrimidin-5-yl)-3-(2-(pyridin-3-yl)-5-(trifluoromethyl)phenyl)urea], the IC50 against human TrkA was 0.001 µM. Also, the inhibition in vivo at 1 mg/kg in experiment [1] was 87%.

On to `Cn1nccc1-c1ccc(C(F)(F)F)cc1NC(=O)Nc1cnc(Oc2ccc(-c3cnn4ccc(N5CCC5)nc34)cc2)nc1` [Example 21-2, 1-(2-(4-(5-(azetidin-1-yl)pyrazolo[1,5-a]pyrimidin-3-yl)phenoxy)pyrimidin-5-yl)-3-(2-(1-methyl-H-pyrazol-5-yl)-5-(trifluoromethyl)phenyl)urea], for which, on human TrkA, the IC50 is 0.001 µM. In experiment [1], the inhibition in vivo at 1 mg/kg was 100%.

On human TrkA, `COc1ccn2ncc(-c3ccc(Oc4ncc(NC(=O)Nc5cc(C(F)(F)F)ccc5-c5cccnc5)cn4)cc3)c2n1` [Example 21-9, 1-(2-(4-(5-methoxypyrazolo[1,5-a]pyrimidin-3-yl)phenoxy)pyrimidin-5-yl)-3-(2-(pyridin-3-yl)-5-(trifluoromethyl)phenyl)urea] yielded an IC50 of 0.001 µM. Also, in experiment [1], the inhibition in vivo at 1 mg/kg turned out to be 100%.
